{"source": "paper PMC13058478", "about": "(Frontiers in Pharmacology, 2026)", "experiment": "Caco-2 passive permeability A to B", "type": "in vitro ADME", "details": "Caco-2, A to B", "experimental": "The concentration of each compound in the respective samples was determined by LC-MS."}
{"molecule": "CC(C)NCC(O)COc1cccc2ccccc12", "note": "(stereo not shown) [Propranolol]", "values": [{"measurement": "Apparent passive permeability A to B Paap, Min", "result": "18.41 10^-6 cm/s"}]}
